Data published in ChEMBL document CHEMBL2073877, “Functional characterization of the basolateral rat liver organic anion transporting polypeptide” (Hepatology, 1994).

Columns and labels:
[1] = molecular target: T1, Solute carrier organic anion transporter family member 1A1 (Rattus norvegicus, UniProt P46720); experiment: TP_TRANSPORTER: inhibition of BSP uptake (BSP: 2 uM, DIDS: 100 uM) in Xenopus laevis oocytes; assay type: functional, cell-based, Oocyte; conditions: probe BSP
T1 sequence (P46720 whole entry): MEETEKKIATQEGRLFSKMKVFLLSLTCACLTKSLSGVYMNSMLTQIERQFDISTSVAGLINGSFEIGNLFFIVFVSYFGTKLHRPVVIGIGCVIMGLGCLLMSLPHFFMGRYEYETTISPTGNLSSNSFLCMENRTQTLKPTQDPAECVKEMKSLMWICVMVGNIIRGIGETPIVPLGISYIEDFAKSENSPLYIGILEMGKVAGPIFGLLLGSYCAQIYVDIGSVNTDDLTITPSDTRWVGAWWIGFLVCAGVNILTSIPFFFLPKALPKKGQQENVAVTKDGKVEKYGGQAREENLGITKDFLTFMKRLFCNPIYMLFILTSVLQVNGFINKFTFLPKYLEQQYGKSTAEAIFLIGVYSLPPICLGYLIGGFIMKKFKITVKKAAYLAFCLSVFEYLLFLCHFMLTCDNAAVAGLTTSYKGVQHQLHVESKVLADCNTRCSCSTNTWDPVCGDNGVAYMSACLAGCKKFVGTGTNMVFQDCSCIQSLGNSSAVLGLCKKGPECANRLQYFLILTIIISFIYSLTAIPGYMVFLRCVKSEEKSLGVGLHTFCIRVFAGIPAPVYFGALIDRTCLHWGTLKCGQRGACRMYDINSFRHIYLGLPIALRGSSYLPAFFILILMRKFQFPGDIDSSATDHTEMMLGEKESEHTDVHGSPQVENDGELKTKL

[2] = molecular target: T1, Solute carrier organic anion transporter family member 1A1; experiment: TP_TRANSPORTER: inhibition of BSP uptake (BSP: 1 uM, Bilirubin: 10 uM) in Xenopus laevis oocytes; assay type: functional, cell-based, Oocyte; conditions: probe BSP
[3] = molecular target: T1, Solute carrier organic anion transporter family member 1A1; experiment: TP_TRANSPORTER: inhibition of Taurocholate uptake (Taurochorate: 20 uM, CDCA: 200 uM) in Xenopus laevis oocytes; assay type: functional, cell-based; conditions: oocyte
[4] = molecular target: T1, Solute carrier organic anion transporter family member 1A1; experiment: TP_TRANSPORTER: inhibition of BSP uptake (BSP: 2 uM, CDCA: 100 uM) in Xenopus laevis oocytes; assay type: functional, cell-based; conditions: oocyte
[5] = molecular target: T1, Solute carrier organic anion transporter family member 1A1; experiment: TP_TRANSPORTER: inhibition of BSP uptake (BSP: 2 uM, DCA: 100 uM) in Xenopus laevis oocytes; assay type: functional, cell-based; conditions: oocyte
[6] = molecular target: T1, Solute carrier organic anion transporter family member 1A1; experiment: TP_TRANSPORTER: inhibition of Taurocholate uptake (Taurochorate: 20 uM, DCA: 200 uM) in Xenopus laevis oocytes; assay type: functional, cell-based; conditions: oocyte
[7] = molecular target: T1, Solute carrier organic anion transporter family member 1A1; experiment: TP_TRANSPORTER: inhibition of Taurocholate uptake (Taurochorate: 20 uM, GCDCA: 200 uM) in Xenopus laevis oocytes; assay type: functional, cell-based; conditions: oocyte
[8] = molecular target: T1, Solute carrier organic anion transporter family member 1A1; experiment: TP_TRANSPORTER: inhibition of BSP uptake (BSP: 2 uM, GCDCA: 100 uM) in Xenopus laevis oocytes; assay type: functional, cell-based; conditions: oocyte
[9] = molecular target: T1, Solute carrier organic anion transporter family member 1A1; experiment: TP_TRANSPORTER: inhibition of BSP uptake (BSP: 2 uM, GC: 100 uM) in Xenopus laevis oocytes; assay type: functional, cell-based; conditions: oocyte
[10] = molecular target: T1, Solute carrier organic anion transporter family member 1A1; experiment: TP_TRANSPORTER: inhibition of Taurocholate uptake (Taurochorate: 20 uM, GC: 200 uM) in Xenopus laevis oocytes; assay type: functional, cell-based; conditions: oocyte
[11] = molecular target: T1, Solute carrier organic anion transporter family member 1A1; experiment: TP_TRANSPORTER: inhibition of Taurocholate uptake (Taurochorate: 20 uM, GDCA: 200 uM) in Xenopus laevis oocytes; assay type: functional, cell-based; conditions: oocyte
[12] = molecular target: T1, Solute carrier organic anion transporter family member 1A1; experiment: TP_TRANSPORTER: inhibition of BSP uptake (BSP: 2 uM, GDCA: 100 uM) in Xenopus laevis oocytes; assay type: functional, cell-based; conditions: oocyte
[13] = molecular target: T1, Solute carrier organic anion transporter family member 1A1; experiment: TP_TRANSPORTER: inhibition of BSP uptake (BSP: 2 uM, ICG: 100 uM) in Xenopus laevis oocytes; assay type: functional, cell-based, Oocyte; conditions: probe BSP, read-out: Activity
[14] = molecular target: T1, Solute carrier organic anion transporter family member 1A1; experiment: TP_TRANSPORTER: inhibition of BSP uptake (BSP: 2 uM, Probenecid: 1000 uM) in Xenopus laevis oocytes; assay type: functional, cell-based, Oocyte; conditions: probe BSP
[15] = molecular target: T1, Solute carrier organic anion transporter family member 1A1; experiment: TP_TRANSPORTER: inhibition of BSP uptake (BSP: 2 uM, TCDC: 100 uM) in Xenopus laevis oocytes; assay type: functional, cell-based; conditions: oocyte
[16] = molecular target: T1, Solute carrier organic anion transporter family member 1A1; experiment: TP_TRANSPORTER: inhibition of Taurocholate uptake (Taurochorate: 20 uM, TCDC: 200 uM) in Xenopus laevis oocytes; assay type: functional, cell-based; conditions: oocyte
[17] = molecular target: T1, Solute carrier organic anion transporter family member 1A1; experiment: TP_TRANSPORTER: inhibition of BSP uptake (BSP: 2 uM, TDCA: 100 uM) in Xenopus laevis oocytes; assay type: functional, cell-based; conditions: oocyte
[18] = molecular target: T1, Solute carrier organic anion transporter family member 1A1; experiment: TP_TRANSPORTER: inhibition of Taurocholate uptake (Taurochorate: 20 uM, TDCA: 200 uM) in Xenopus laevis oocytes; assay type: functional, cell-based; conditions: oocyte
[19] = molecular target: T1, Solute carrier organic anion transporter family member 1A1; experiment: TP_TRANSPORTER: inhibition of BSP uptake (BSP: 2 uM, UDCA: 100 uM) in Xenopus laevis oocytes; assay type: functional, cell-based; conditions: oocyte
[20] = molecular target: T1, Solute carrier organic anion transporter family member 1A1; experiment: TP_TRANSPORTER: inhibition of Taurocholate uptake (Taurochorate: 20 uM, UDCA: 200 uM) in Xenopus laevis oocytes; assay type: functional, cell-based; conditions: oocyte

O=S(=O)(O)c1cc(N=C=S)ccc1/C=C/c1ccc(NC=S)cc1S(=O)(=O)O
inhibition at 100 µM [1]: 52%

C=CC1=C(C)/C(=C/c2[nH]c(Cc3[nH]c(/C=C4\NC(=O)C(C)=C4C=C)c(C)c3CCC(=O)O)c(CCC(=O)O)c2C)NC1=O [BILIRUBIN]
inhibition at 10 µM [2]: 43%

C[C@H](CCC(=O)O)[C@H]1CC[C@H]2[C@@H]3[C@H](O)C[C@@H]4C[C@H](O)CC[C@]4(C)[C@H]3CC[C@]12C [CHENODIOL]
Activity [3]: inhibitor [(at a rough estimate) 5 % of control] | Activity [4]: inhibitor [(at a rough estimate) 15 % of control]

C[C@H](CCC(=O)O)[C@H]1CC[C@H]2[C@@H]3CC[C@@H]4C[C@H](O)CC[C@]4(C)[C@H]3C[C@H](O)[C@]12C [DEOXYCHOLIC ACID]
Activity [5]: inhibitor [(at a rough estimate) 15 % of control] | Activity [6]: inhibitor [(at a rough estimate) 5 % of control]

C[C@H](CCC(=O)NCC(=O)O)[C@H]1CC[C@H]2[C@@H]3[C@H](O)C[C@@H]4C[C@H](O)CC[C@]4(C)[C@H]3CC[C@]12C [GLYCOCHENODEOXYCHOLATE]
Activity [7]: inhibitor [(at a rough estimate) 5 % of control] | Activity [8]: inhibitor [(at a rough estimate) 10 % of control]

C[C@H](CCC(=O)NCC(=O)O)[C@H]1CC[C@H]2[C@@H]3[C@H](O)C[C@@H]4C[C@H](O)CC[C@]4(C)[C@H]3C[C@H](O)[C@]12C [GLYCOCHOLIC ACID]
Activity [9]: inhibitor [(at a rough estimate) 45 % of control] | Activity [10]: inhibitor [(at a rough estimate) 40 % of control]

C[C@H](CCC(=O)NCC(=O)O)[C@H]1CC[C@H]2[C@@H]3CC[C@@H]4C[C@H](O)CC[C@]4(C)[C@H]3C[C@H](O)[C@]12C [GLYCODEOXYCHOLATE]
Activity [11]: inhibitor [(at a rough estimate) 10 % of control] | Activity [12]: inhibitor [(at a rough estimate) 15 % of control]

CC1(C)C(/C=C/C=C/C=C/C=C2\N(CCCCS(=O)(=O)O)c3ccc4ccccc4c3C2(C)C)=[N+](CCCCS(=O)(=O)[O-])c2ccc3ccccc3c21 [INDOCYANINE GREEN]
inhibition at 100 µM [13]: 81%

CCCN(CCC)S(=O)(=O)c1ccc(C(=O)O)cc1 [PROBENECID]
inhibition at 1000 µM [14]: 74%

C[C@H](CCC(=O)NCCS(=O)(=O)O)[C@H]1CC[C@H]2[C@@H]3[C@H](O)C[C@@H]4C[C@H](O)CC[C@]4(C)[C@H]3CC[C@]12C [TAUROCHENODEOXYCHOLATE]
Activity [15]: inhibitor [(at a rough estimate) 5 % of control] | Activity [16]: inhibitor [(at a rough estimate) 5 % of control]

C[C@H](CCC(=O)NCCS(=O)(=O)O)[C@H]1CC[C@H]2[C@@H]3CC[C@@H]4C[C@H](O)CC[C@]4(C)[C@H]3C[C@H](O)[C@]12C [TAURODEOXYCHOLIC ACID]
Activity [17]: inhibitor [(at a rough estimate) 10 % of control] | Activity [18]: inhibitor [(at a rough estimate) 5 % of control]

C[C@H](CCC(=O)O)[C@H]1CC[C@H]2[C@@H]3[C@@H](O)C[C@@H]4C[C@H](O)CC[C@]4(C)[C@H]3CC[C@]12C [URSODIOL]
Activity [19]: inhibitor [(at a rough estimate) 15 % of control] | Activity [20]: inhibitor [(at a rough estimate) 10 % of control]
